Source: patent US20120070487A1, “ALKYLSACCHARIDE COMPOSITIONS WITH NUTRACEUTICALS” (AEGIS THERAPEUTICS LLC, priority 2010, published 2012)
Where a SMILES comes first, the peptide text is derived from it. [ ]: non-standard residue; d: D form.

Key:
[1] = Oral absorption of calcium with alkylsaccharide; blood levels in volunteers; format: in vivo, human; conditions: oral gelatin capsules, calcium citrate admixed with 3% dodecyl maltoside
Protocol: Calcium citrate is obtained from General Nutrition Corp. as 1000 mg tablets. The tablets are ground in a mortar and pestle until a fine uniform powder is created. The powder is admixed with 3% dodecyl maltoside, pharmaceutical grade (Inalco Chemical Co., Milan Italy) and filled into gelatin capsules, size #000-25 mm length (Capsuline, Pompano Beach, Fla.) and administered to volunteers. Blood samples are collected and calcium levels are measured by commercial clinical laboratory. The calcium blood levels obtained following oral administration with dodecyl maltoside are seen to be at least 20% higher than those obtained in the absence of dodecyl maltoside.

[2] = Oral absorption of resveratrol with sucrose laurate; blood levels in volunteers; format: in vivo, human; conditions: oral gelatin capsules, admixed with 5% w/w sucrose laurate
Protocol: Resveratrol was obtained from RevGenetics, Miami, Fla., as 300 mg gel capsules. Capsules were opened by carefully separating the two halves. The contents were combined and admixed with 5% w/w food grade sucrose laurate alkylsaccharide (Ryoto Sugar Ester M-1216, Mitsubishi-Kagaku Tokyo, Japan). Gelatin capsules were filled with the admixture and administered to volunteers. Blood samples are collected and resveratrol levels are measured by the method of Soleas et al. (Methods Enzymol 335: 130-45 (2001)). The resveratrol blood levels obtained following oral administration with sucrose laurate are at least 20% higher than those obtained in the absence of sucrose laurate.

[3] = mouse, in vivo
Protocol: (§1) Doses of 1 mg each were also administered to mice by the IP, SC and IM routes in solutions containing 0.18% tetradecyl beta-D-maltoside and compared to administration by oral gavage in a solution containing 0.3% (3 mg/mL wt/vol) of tetradecyl-beta-D-maltoside.
(§2) Six week-old male Swiss Webster mice weighing approximately 30 gm were maintained at a constant temperature (24 C) with lights on from 07:00 to 19:00 h, and allowed food and water ad libitum until used for uptake studies. […] For sc, im, and ip delivery, the peptide was dissolved in sterile phosphate buffered saline (PBS, pH 7.2) at a concentration of 1 mg/200 μL as described previously containing 0.18% tetradecyl-beta-D-maltoside. For oral gavage [D-Leu-4]OB3 was dissolved in 0.3% dodecyl-beta-D-maltoside reconstituted in PBS (pH 7.2) at a concentration of 1 mg/200 μL. […]
(§3) The [D-Leu-4]OB3 competitive ELISA assay was carried out as follows. […] Absorbance was read at 405 nm with a Molecular Devices microplate reader (MDS Sciex, Concord, Ontario Canada). […] The relative bioavailability was determined by plotting the serum concentrations of mouse [D-Leu-4]OB3 vs. time following ip, sc, or im delivery using the graphics program SigmaPlot™ 8.0 (SPSS Science, Chicago, Ill., USA). The area under each curve (AUC) was calculated with a function of this program.

[4] = in vivo; conditions: male, Swiss Webster, mouse, po, 1 mg
Protocol: as §1, §2, §3

O=C([O-])CC(O)(CC(=O)[O-])C(=O)[O-].O=C([O-])CC(O)(CC(=O)[O-])C(=O)[O-].[Ca+2].[Ca+2].[Ca+2] [Calcium citrate]
calcium blood levels, increase versus absence of dodecyl maltoside [1]: at least 20%

Oc1ccc(C=Cc2cc(O)cc(O)c2)cc1 [Resveratrol]
resveratrol blood levels, increase versus absence of sucrose laurate [2]: at least 20%

CC(C)C[C@@H](NC(=O)[C@H](CO)NC(=O)[C@H](CS)NC(=O)[C@@H](N)CO)C(=O)N1CCC[C@H]1C(=O)N[C@@H](CCC(N)=O)C(=O)N[C@H](C(N)=O)[C@@H](C)O [[D-Leu-4]OB3, Ser-Cys-Ser-D-Leu-Pro-Gln-Thr] (H-SCS[dL]PQT-NH2; N-terminus assumed)
Relative Oral Bioavailability Compared to Three Injection Modes (% of AUC achieved by each respective injection) [3]: 37.8% of IM AUC
F rel [4]: 47.3%
